According to patent US4469795A, “Radioassay for monosialoglycosphingolipid (GM1) ganglioside concentration” (priority 1981, dated 1984):

System: iodotoxin binding to liver membranes
Set-up: species or system rat

| Substance | inhibition of liver membrane toxin binding | time until binding of iodotoxin to GM1 ganglioside is complete | inhibition of iodotoxin binding to liver membranes by the unlabelled enterotoxin | reversal of inhibition of iodotoxin binding to liver membranes |
| --- | --- | --- | --- | --- |
| monosialoglycosphingolipid GM1 ganglioside | greater than 94% | thirty |  |  |
| cholera toxin |  |  | did not occur | greater than 92% |
